The target in one series is CYP2C19 (Homo sapiens, UniProt P33261). The experiment in a line: Phase 1 drug-drug interaction study: PK of omeprazole and 5-hydroxyomeprazole with placebo or GLPG1205. Particulars: for tmax: median (min‐max); for AUC: male, plasma, oral, arithmetic mean (CV%). Here is the method:
Prior to injection into the analytical system, isolation of omeprazole, its metabolite and the deuterated IS (omeprazole –d3) from 200 µL of human Li-heparin plasma was performed by solid phase extraction performed on Oasis HBL 60mg 3cc cartridges (Waters, Zellik, Belgium). The elution from the cartridges was done with 1 mL of methanol and then the eluate was evaporated to dryness under a stream of nitrogen at approximatively +35°C. The residue was reconstituted with 0.2 mL of mobile phase and then centrifuged at about 3500 rpm for 5 minutes at +5°C. 120 µL of the clear supernatant was transferred into injection vials. […] Chromatographic separation was performed on a Zorbax XBD-C8 column (Agilent, Eindhoven, The Netherlands) (50 x 4.6 mm, 3.5 µm from Interchim) by using a Nexera HLPC system (Shimadzu, Kyoto, Japan) in isocratic elution mode.

The target of another series is CYP2C9 (Homo sapiens, UniProt P11712). The note with it: for AUC0‐inf: arithmetic mean (CV%); for tmax: median (min‐max).
In series [1] the target is T1, CYP1A2 (Homo sapiens, UniProt P05177).
T1 sequence (P05177 1-516): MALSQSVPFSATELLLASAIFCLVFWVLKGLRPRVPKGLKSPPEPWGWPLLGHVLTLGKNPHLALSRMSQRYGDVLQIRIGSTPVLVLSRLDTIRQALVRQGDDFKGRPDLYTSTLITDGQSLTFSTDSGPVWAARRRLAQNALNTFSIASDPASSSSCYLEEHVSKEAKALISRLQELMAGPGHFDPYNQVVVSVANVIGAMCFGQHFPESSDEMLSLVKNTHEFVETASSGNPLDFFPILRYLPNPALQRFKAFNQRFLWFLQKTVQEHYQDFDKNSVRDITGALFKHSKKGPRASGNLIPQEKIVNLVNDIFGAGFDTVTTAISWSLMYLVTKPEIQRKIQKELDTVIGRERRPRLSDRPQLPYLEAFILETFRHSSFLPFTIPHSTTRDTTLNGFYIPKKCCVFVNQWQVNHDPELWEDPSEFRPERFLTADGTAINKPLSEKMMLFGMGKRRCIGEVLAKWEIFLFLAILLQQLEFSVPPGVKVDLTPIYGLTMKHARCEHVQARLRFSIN
The note with it: for tmax: median (min‐max); for R_AUC0‐t (metabolite‐over‐parent ratio): geometric mean (geometric CV%).
Description: (§1) This was a phase 1 single‐center, randomized, double‐blind, placebo‐controlled crossover drug‐drug interaction study (ClinicalTrials.gov number NCT02623296).
(§2) Subjects received treatment in 1 of 2 sequences (AB or BA, n = 7 in each sequence). In treatment A, oral doses of GLPG1205 100 mg once a day were administered from day 1 to day 12. On day 13, GLPG1205 100 mg (capsule form) was coadministered with the CYP450 substrates following an overnight fast. In treatment B, oral doses of placebo (capsule form) once a day were administered from day 1 to day 12. On day 13 placebo was coadministered with the CYP450 substrates following an overnight fast. Dose administration on day 13 was followed by a 4‐hour fast. The 2 treatment sequences were separated by a washout period of at least 28 days.
(§3) Pharmacokinetic assessments included analysis of GLPG1205, and the CYP450 substrates and their metabolites in plasma. In each treatment period, blood samples were collected by venipuncture in the arm predose on days 7, 9, 10, and 13 and on day 13 at 1, 2, 4, 6, 8, 12, 24 (day 14), 48 (day 15), 96 (day 17), and 144 (day 19) hours postdose for PK analysis. For treatment period 2, an additional blood sample was also taken at 168 hours (day 20; follow‐up visit) postdose. Samples collected on days 7, 9, and 10 were for GLPG1205 analysis only. Blood samples of 2 mL were collected for the determination of GLPG1205 in plasma, and of 9 mL for the determination of CYP450 substrates and their metabolites. After collection, blood samples were immediately chilled using an ice bath. Within 30 minutes of collection, samples were separated by centrifugation at 1500 g for 10 minutes at 4°C. For GLPG1205, ≥250 μL of plasma was transferred into 2.0‐mL polypropylene tubes and stored at –20°C or below immediately after centrifugation at the clinical center until shipment to analysis centers. For CYP450 substrates, 500 μL of plasma was transferred to 2.0‐mL polypropylene tubes. […] All samples were shipped on dry ice to analysis centers. Repetitive freeze‐thaw cycles were avoided to maintain the integrity of samples. Plasma concentrations were measured using LC‐MS/MS; further details can be found in the Supplemental Methods. Pharmacokinetic calculations were performed by SGS LSS using Phoenix WinNonLin 6.2 or higher (Pharsight Corporation, Palo Alto, California). […] Values below the quantification limit were imputed by 0 for the calculation of descriptive statistics except for geometric mean and geometric coefficient of variation (CV), for which it was imputed by half the lower limit of quantification.
(§4) An analysis of variance (ANOVA) with treatment, treatment period, and sequence as fixed effects and subject as a random effect was performed on natural log‐transformed PK parameters (R, Cmax, AUC0‐inf, AUC0‐t, and t1/2,λz) of CYP450 substrates and their metabolites on day 13. The treatment effect for tmax was assessed using the nonparametric Wilcoxon's signed rank test. Point estimates were calculated as the geometric mean of the individual ratios for each parameter for treatment A (GLPG1205 + CYP450 substrates) relative to treatment B (placebo + CYP450 substrates) and expressed as fold difference.

The target of series [2] is T1, CYP1A2. The experiment in a line: clinical. Particulars: male, plasma, oral; for half-life: t1/2, λz.
Description: as §1, §2, §3, §4
Setting [3] is: GLPG1205 100 mg once a day + warfarin.
The mark [4] stands for this setting: AUC0‐t, GLPG1205 100 mg once a day + caffeine, arithmetic mean (CV%).
The mark [5] stands for this setting: AUC0‐t, Placebo + caffeine, arithmetic mean (CV%).
The mark [6] stands for this setting: GLPG1205 100 mg once a day + caffeine 100 mg day 13, n = 14, arithmetic mean (CV%).
[7] abbreviates: Placebo + caffeine 100 mg day 13, n = 14, arithmetic mean (CV%).
[8] abbreviates: GLPG1205 relative to placebo (ANOVA).
Setting [9] is: GLPG1205 100 mg once a day + caffeine.

SMILES strings stand for the structures. Where two headings read alike, the source gives them in different places.

Sequence of CYP2C19 (P33261 whole entry): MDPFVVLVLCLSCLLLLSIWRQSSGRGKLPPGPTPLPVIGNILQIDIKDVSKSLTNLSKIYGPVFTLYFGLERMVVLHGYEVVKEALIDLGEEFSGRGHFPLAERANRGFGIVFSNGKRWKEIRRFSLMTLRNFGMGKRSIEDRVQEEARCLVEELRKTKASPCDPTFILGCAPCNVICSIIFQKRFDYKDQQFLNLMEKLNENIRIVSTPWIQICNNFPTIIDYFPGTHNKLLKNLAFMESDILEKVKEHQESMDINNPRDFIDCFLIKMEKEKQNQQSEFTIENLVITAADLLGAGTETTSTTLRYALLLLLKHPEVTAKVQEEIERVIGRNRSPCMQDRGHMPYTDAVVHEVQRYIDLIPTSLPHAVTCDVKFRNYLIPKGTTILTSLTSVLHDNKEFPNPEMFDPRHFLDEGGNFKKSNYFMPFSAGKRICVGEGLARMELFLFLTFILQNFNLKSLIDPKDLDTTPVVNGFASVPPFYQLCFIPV
Sequence of CYP2C9 (P11712 whole entry): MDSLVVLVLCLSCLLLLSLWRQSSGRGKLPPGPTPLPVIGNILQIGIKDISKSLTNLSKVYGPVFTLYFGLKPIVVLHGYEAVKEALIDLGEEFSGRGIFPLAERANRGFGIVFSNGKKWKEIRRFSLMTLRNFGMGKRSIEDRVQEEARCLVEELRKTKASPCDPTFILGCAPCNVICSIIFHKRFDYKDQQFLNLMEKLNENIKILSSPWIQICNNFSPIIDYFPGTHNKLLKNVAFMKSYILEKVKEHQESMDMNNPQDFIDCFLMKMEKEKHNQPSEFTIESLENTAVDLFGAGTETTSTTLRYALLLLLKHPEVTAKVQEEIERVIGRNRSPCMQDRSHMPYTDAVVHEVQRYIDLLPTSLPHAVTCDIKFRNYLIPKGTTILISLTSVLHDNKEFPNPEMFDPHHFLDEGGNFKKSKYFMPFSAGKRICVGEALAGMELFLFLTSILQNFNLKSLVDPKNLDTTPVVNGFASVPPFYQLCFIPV
Description for CYP2C9: as §1, §2, §3, §4

With `COc1ccc2nc([S+]([O-])Cc3ncc(CO)c(OC)c3C)[nH]c2c1` (centres unmarked) [5‐Hydroxyomeprazole, 5‐hydroxyomeprazole], on CYP2C19 (human, in vivo), the “AUC0‐inf, PE (90% CI) of least‐squares geometric means ratio” value is listed as 1.08 (0.98‐1.20) and the “AUC0‐t, PE (90% CI) of least‐squares geometric means ratio” value was 1.08 (0.96‐1.21). Further, at CYP2C19 (in vivo), the “R_AUC0‐inf, PE (90% CI) of least‐squares geometric means ratio” value is listed as 0.83 (0.77‐0.89) and the “R_AUC0‐t, PE (90% CI) of least‐squares geometric means ratio” value is recorded as 0.84 (0.79‐0.89).

With `CC(=O)C[C@@H](c1ccccc1)c1c(O)c2ccc(O)cc2oc1=O` [(S)‐7‐Hydroxywarfarin, (S)‐7‐hydroxywarfarin], at CYP2C9 (human, in vivo), the “AUC0‐t, PE (90% CI) of least‐squares geometric means ratio” value is recorded as 1.15 (1.00‐1.32). Moreover, the “R_AUC0‐t, PE (90% CI) of least‐squares geometric means ratio” value at CYP2C9 (in vivo) is on record as 1.01 (0.87‐1.19).

In the case of `CC(=O)C[C@@H](c1ccccc1)c1c(O)c2ccccc2oc1=O` [(S)‐Warfarin, (S)‐warfarin], the Cmax is 0.481 (19.8) μg/mL on CYP2C9 (GLPG1205 100 mg once a day + warfarin 10 mg day 13, n = 14, arithmetic mean (CV%)) and 0.453 (21.3) μg/mL at CYP2C9 (Placebo + warfarin 10 mg day 13, n = 14, arithmetic mean (CV%)). Further, the “AUC0‐inf” value at CYP2C9 (setting [3]) is on record as 17.5 (24.9) μg·h/mL; on CYP2C9 (Placebo + warfarin) it was 15.1 (21.1) μg·h/mL. Moreover, the tmax at CYP2C9 (setting [3]) and at CYP2C9 (Placebo + warfarin) was 2.0 (0.5‐4.0) h in each case.

With `Cn1c(=O)c2c(ncn2C)n(C)c1=O` [Caffeine, caffeine], the tmax at CYP1A2 [1] (Placebo + caffeine) is 1.0 (0.3‐3.0) h. Besides, the AUC was 17400 ng·h/mL at CYP1A2 [2] (AUC0‐inf, GLPG1205 100 mg once a day + caffeine, arithmetic mean (CV%)); 18700 ng·h/mL on CYP1A2 [2] (AUC0‐inf, Placebo + caffeine, n = 12, arithmetic mean (CV%)); 15700 ng·h/mL on CYP1A2 [2] (setting [4]); 16300 ng·h/mL on CYP1A2 [2] (setting [5]). Also, the Cmax at CYP1A2 [2] (setting [6]) is 2160 ng/mL; at CYP1A2 [2] (setting [7]) it was 2150 ng/mL. Moreover, the half-life on CYP1A2 [2] (GLPG1205 100 mg once a day + caffeine, arithmetic mean (CV%)) is 4.9 h; on CYP1A2 [2] (Placebo + caffeine, n = 13, arithmetic mean (CV%)), 5.73 h.

In the case of `COc1ccc2[nH]c([S+]([O-])Cc3ncc(C)c(OC)c3C)nc2c1` (centres unmarked) [Omeprazole, omeprazole, reference compound], the tmax was 2.0 (1.0‐5.0) h on CYP2C19 (GLPG1205 100 mg once a day + omeprazole) and 3.0 (2.0‐5.0) h at CYP2C19 (Placebo + omeprazole). Also, the “AUC0‐inf, PE (90% CI) of least‐squares geometric means ratio” value on CYP2C19 (setting [8]) is recorded as 1.36 (1.18‐1.58). Also, the “AUC0‐t, PE (90% CI) of least‐squares geometric means ratio” value on CYP2C19 (setting [8]) is 1.28 (1.10‐1.49). Further, the “Cmax, PE (90% CI) of least‐squares geometric means ratio” value on CYP2C19 (setting [8]) is 1.30 (1.03‐1.65). The “t1/2, λz, PE (90% CI) of least‐squares geometric means ratio” value on CYP2C19 (setting [8]) is 1.09 (0.97‐1.22). The AUC is 520 ng·h/mL at CYP2C19 (human, 20 mg, AUC0‐inf, Placebo + omeprazole); 486 ng·h/mL on CYP2C19 (human, 20 mg, AUC0‐t, Placebo + omeprazole); 548 ng·h/mL at CYP2C19 (human, AUC0‐inf, GLPG1205 100 mg once a day + omeprazole); 563 ng·h/mL on CYP2C19 (human, AUC0‐t, GLPG1205 100 mg once a day + omeprazole).

On to `Cn1c(=O)[nH]c2ncn(C)c2c1=O` [Paraxanthine, paraxanthine], for which, at CYP1A2 [1] (setting [9]), the “R_AUC0‐t (metabolite‐over‐parent ratio)” value is on record as 0.538 (27.7) and the tmax was 7.0 (0.3‐12.0) h. Also, at CYP1A2 [1] (setting [8]), the “AUC0‐t, PE (90% CI) of least‐squares geometric means ratio” value is on record as 0.96 (0.79‐1.16); the “Cmax, PE (90% CI) of least‐squares geometric means ratio” value is on record as 1.08 (0.97‐1.21); the “R_AUC0‐t, PE (90% CI) of least‐squares geometric means ratio” value was 1.00 (0.87‐1.15). The “R_AUC0‐t (metabolite‐over‐parent ratio)” value at CYP1A2 [1] (Placebo + caffeine) was 0.539 (30.5). In addition, the AUC on CYP1A2 [2] (setting [4]) amounted to 8600 ng·h/mL. In addition, at CYP1A2 [2] (setting [5]), the AUC is 8430 ng·h/mL. For the same molecule, at CYP1A2 [2] (setting [6]), the Cmax worked out at 634 ng/mL. Besides, at CYP1A2 [2] (setting [7]), the Cmax amounted to 577 ng/mL.
